These results are taken from article PMC8540140, “The Real Cytotoxic Effect of Artemisinins on Colon Cancer Cells in a Physiological Cell Culture Setting. How Composition of the Culture Medium Biases Experimental Findings” (Pharmaceuticals, 2021).

For series [1], the system named is SW480 cells. The experiment in a line: Trypan blue exclusion viability assay, SW480. The format is cell-based, human. The settings on record: 8 µM with LA (40 µM), 72 h, TB assay. Here is the method:
(§1) Next, the cells were harvested by treatment with 0.25% trypsin-0.02% EDTA (Gibco Life Technologies, Carslabad, CA USA) and seeded in 96-well plates (1 × 10^4 cells per well) for MTT assay or in 6-well plates (4 × 10^4 cells per well) for Trypan blue exclusion method. […] The cells treated only with 20 µM LA were used as a control. All experimental settings were repeated with holo-transferrin (TRFi) at pharmacological concentration (50 µM). All cells were cultured for a period of 72 h.
(§2) After a 72 h incubation with serial concentration of experimental compounds the cells were washed in PBS and harvested with trypsin. The viability was estimated by trypan blue exclusion assay using an automated cell counter (Countess Invitrogen). Experiments were performed in triplicate.

Series [2] concerns SW620 cells. The experiment in a line: Trypan blue exclusion viability assay, SW620. The format is cell-based, human. The settings on record: 8 µM with LA (40 µM), 72 h, TB assay. Here is the method: as §1, §2
The test system of series [3] is SW480 human primary colon cancer cell line. The experiment in a line: MTT cytotoxicity assay, SW480. The settings on record: 72 h, LA 20 or 40 µM, TRFi 50 µM where named in the label. The format is cell-based. The protocol:
(§3) The human cell lines SW480 (primary colon cancer), SW620 (lymph node metastatic from the same patient as SW480), and HaCaT (immortalized keratinocyte) were obtained from the American Type Culture Collection (ATCC, Rockville, USA). SW480 and SW620 cells were grown in MEM (minimal essential medium, ThermoSci, USA), and HaCaT in DMEM high glucose (Dulbecco’s Modified Eagle’s Medium, Biowest SAS, France) supplemented with 10% FBS (fetal bovine serum), HEPES (20 mM), and antibiotics (100 U/mL of penicillin and 100 μg/mL of streptomycin). The cells were maintained in a humidified incubator at 37 °C/5% CO2 until 80–90% confluence was reached.
as §1
(§4) The cytotoxic effects of tested compounds were assessed by MTT (3-(4,5-dimethylthiazol-2-yl)-2,5-diphenyltetrazolium bromide) assay. This assay is based on the metabolic reduction of soluble MTT into an insoluble colored formazan product by mitochondrial dehydrogenase activity of viable cells. After 72 h incubation in the presence of experimental compounds the cells were incubated at 37 °C with MTT solution (0.5 mg/mL) for 4h. Obtained purple formazan product was dissolved in DMSO with isopropanol (1:1) and the optical density was measured at 570 nm. Each experiment was performed in triplicate. The cytotoxicity of compounds was presented as a percent of MTT reduced in treated cells vs. control cells. The relative MTT level (%) was calculated according formula [A]/[B] × 100. [A] express the absorbance of the test sample whereas [B] the absorbance of the control sample (untreated cells. IC50 values were calculated using CompuSyn version 1.0.

The test system of series [4] is HaCaT human immortal keratinocyte cell line. The experiment in a line: MTT cytotoxicity assay, HaCaT. The format is cell-based. The settings on record: for IC50: Homo sapiens, HaCaT, MTT, 72 h; for cytotoxic effect on HaCaT cells: combination with LA40 and TRFi. Here is the method: as §3, §1, §4
Series [5] has as its system SW620 human metastatic colon cancer cell line. The experiment in a line: MTT cytotoxicity assay, SW620. The format is cell-based. The settings on record: SW-620, 72 h, LA 20 or 40 µM, TRFi 50 µM where named in the label. For orientation: Tetrazolium assays rely on reduction of a dye to a coloured formazan, in cell work by metabolically active cells.
Procedure: The cytotoxic effects of tested compounds were assessed by MTT (3-(4,5-dimethylthiazol-2-yl)-2,5-diphenyltetrazolium bromide) assay. […] Obtained purple formazan product was dissolved in DMSO with isopropanol (1:1) and the optical density was measured at 570 nm. […] The relative MTT level (%) was calculated according formula [A]/[B] × 100. [A] express the absorbance of the test sample whereas [B] the absorbance of the control sample (untreated cells. IC50 values were calculated using CompuSyn version 1.0.
Series [6] deals with SW620 cells. The experiment in a line: FITC Annexin V/PI flow cytometry apoptosis assay, SW620. The format is cell-based, human. The settings on record: for cells in late apoptosis SW620: with LA 40 and TRFi addition. Here is the method:
(§5) The cells were cultured and harvested under the conditions mentioned in Cell Culture and Treatment and seeded in 6-well plates (2 × 10^5 cells per well). […] The apoptotic effect of compounds was measured using the Annexin V:FITC assay kit (Sigma Aldrich) in accordance with the protocols provided. After 72 h treatment both floating and adherent cells were harvested. The floating cells were collected by centrifugation at 700× g for 5 min at 4 °C. Adherent cells were first trypsinized and then collected by centrifugation at 700× g for 5 min at 4 °C. Both fractions were resuspended in Annexin V binding buffer, pooled and incubated with FITC Annexin V and PI for 15 min at room temperature in the dark and analyzed by flow cytometry (Becton Dickinson). A total of 10,000 events were collected. Annexin V:FITC positive and PI negative cells were recognized as early apoptosis and Annexin V:FITC and PI positive cells as late apoptosis or necrosis.
In general terms: In flow cytometry, cells or beads pass a laser one at a time.

The next series concerns HaCaT cells. Briefly: FITC Annexin V/PI flow cytometry apoptosis assay, HaCaT. The format is cell-based, human. The settings on record: with LA 40 and TRFi addition. The protocol:
as §5

Experiment in series [7]: as above
The format is cell-based, human. The settings on record: human, HaCaT cells; read-out: Q1 viable cells HaCaT. The protocol: as §5

For series [8], the system named is IL-6 secreted by SW620 cells. The experiment in a line: Interleukin-6 ELISA in culture medium, SW620. The settings on record: added to ART-LA or DHA-LA (20 and 40 µM), 72 h; all studied settings except ART-LA20. The format is cell-based, human. The protocol:
(§6) The level of interleukin-6 (IL-6) secreted by SW480 and SW620 cells was measured by commercial human IL-6 ELISA kits (Diaclon SAS, Besancon Cedex, France). […] The untreated cells were used as the control. The IL-6 level in a cell culture supernatant was determined by an enzyme-linked immunosorbent assay, according to the manufacturer’s protocol. The experiment was repeated three times.

Series [9] relates to IL-6 secreted by SW480 cells. Briefly: Interleukin-6 ELISA in culture medium, SW480. The format is cell-based, human. The settings on record: added to ART-LA or DHA-LA (20 and 40 µM), 72 h; all studied settings. Here is the method:
as §6
For orientation: In an ELISA, binding on a coated surface is turned into a signal by an enzyme label.

The test system of a further series is HCT-116 cells. More on the design: method as in ref 37 (Lu et al. 2014). The settings on record: 40 μM, 72 h; ref 37 (Lu et al. 2014); cited from earlier work.
For series [10], the system named is SW480 cells. The experiment in a line: FITC Annexin V/PI flow cytometry apoptosis assay, SW480. The format is cell-based. The settings on record: Homo sapiens, SW480, 72 h; read-out: Q1 viable cells SW480. The protocol: as §5
Another series deals with SW948 cells. More on the design: method as in ref 36 (Lu et al. 2018). The settings on record: 48 h, ref 36 (Lu et al. 2018), cited from earlier work.
[11] abbreviates: with TRFi 50 µM, read-out: IC50 HaCaT at the presence of TRFi.
The mark [12] stands for this setting: LA 20 or 40 µM, TRFi 50 µM where named in the label, read-out: IC50 HaCaT.

Where two headings read alike, the source gives them in different places.

In general, IC50 refers to the concentration that inhibits the measured activity by half. For the compound `C[C@@H]1CC[C@H]2[C@@H](C)C(=O)O[C@@H]3O[C@@]4(C)CC[C@@H]1[C@]32OO4` [ART, Artemisinin], in the series on SW480 cells [1], the “viability SW480” value is given as 39 ± 2.8%. In addition, the “viability SW620” value in the series on SW620 cells [2] is listed as 48 ± 2.8%. Further, the IC50 in [3] was 39 ± 2.75 µM; in series [4] (setting [11]) it was 187 µM; in series [4] (setting [12]), 203 ± 16.2 µM; in [5], 42.8 ± 4.6 µM. The “cytotoxic effect on HaCaT cells” value in series [4] is reported as “no cytotoxic effect”. In addition, the “cells in late apoptosis SW620” value in the series with SW620 cells [6] is recorded as 90%. The “late apoptosis HaCaT” value in the series on HaCaT cells is 25.68%. Besides, the viability at 72 h, 2 µM in [7] came to 80.8%.
Take “TRFi: holotransferrin, iron-binding protein added to culture medium at 50 µM”: the “effect of TRFi addition on IL-6 concentration SW620” value in [8] is reported as “increased IL-6 concentration”. Further, the “effect of TRFi addition on IL-6 concentration SW480” value in series [9] is on record as “increased IL-6 concentration”.
On to `C[C@H]1[C@@H](O)O[C@@H]2O[C@@]3(C)CC[C@H]4[C@H](C)CC[C@@H]1[C@@]24OO3` [DHA, dihydroartemisinin], for which the “viability SW480” value in the series on SW480 cells [1] was 35 ± 1.8%. Besides, the “viability SW620” value with SW620 cells [2] worked out at 42 ± 2.1%. Further, the IC50 in [3] came to 11.4 ± 1.67 µM; in [4] (setting [11]) it was 129 µM; in series [4] (setting [12]), 116 ± 5.5 µM; in [5], 11.9 ± 2.3 µM. Besides, in series [4], the “cytotoxic effect on HaCaT cells” value was “no cytotoxic effect”. Moreover, the “viability HCT-116” value in the series with HCT-116 cells is 40%. Further, the viability at 2 µM worked out at 72.4% in the series with SW620 cells [6] (Homo sapiens, SW-620, 72 h, read-out: Q1 viable cells SW620) and 60.7% in the series with SW480 cells [10]. Further, the “cells in late apoptosis SW620” value in the series with SW620 cells [6] turned out to be 90%. The “late apoptosis HaCaT” value with HaCaT cells worked out at 42.80%. Moreover, the viability at 72 h, 2 µM in [7] is 73.7%. The “viability SW948” value with SW948 cells (30 µM) is reported as 45%; in the series on SW948 cells (50 µM) it was 24%.
On to `COc1cccc2c1C(=O)c1c(O)c3c(c(O)c1C2=O)C[C@@](O)(C(=O)CO)C[C@@H]3O[C@H]1C[C@H](N)[C@H](O)[C@H](C)O1` [DOX, doxorubicin], for which the IC50 was determined as 0.75 ± 0.1 µM in series [3] and 0.29 ± 0.1 µM in series [4] (setting [12]).
